Experimental data as given in patent US20220218664A1, “DRUG AND METHOD FOR TREATING OR PREVENTING COMPLICATIONS FROM DIABETES, USING SAID DRUG” (TMS Co., Ltd., priority 2019, published 2022).
Several values for one entry are separate records, joined by “and”; a condition that tells them apart may be missing. Equal entries are not always repeated.

Tests used:
Assay type in all cases: in vivo, C57BL/6J male mice
[1] = Body weight (BW) in streptozotocin-induced diabetic mice
Procedure: (§1) 9-week-old C57BL/6J male mice were purchased and familiarized with an animal facility for 1 week. 200 mg/kg of streptozotocin (streptozotocin; STZ) was administered […] into the peritoneal cavity of 10-week-old mice to prepare streptozotocin-induced diabetic mice (hereinafter also referred to as “STZ administration week 0”). One week after the administration of streptozotocin, blood was collected from the tail vein of the mice, and the blood glucose level (BS) was measured using an automatic blood glucose measuring device (product name: Medisafe (trademark) Mini GR-102, made by Terumo (Co)). Mice having a blood glucose level of 400 mg/dL or more were determined to be diabetic mice.
(§2) The SMTP-44D groups, the edaravone group, and the pregabalin group were administered SMTP-44D (0.3 mg/kg, 3 mg/kg, or 30 mg/kg doses, respectively), edaravone (10 mg/kg dose), or pregabalin (10 mg/kg dose) into the peritoneal cavity once a day for 3 consecutive weeks from the day following the first week to the fourth week after STZ administration.
(§3) For the above-mentioned STZ group, SMTP-44D groups, edaravone group, pregabalin group, and control group mice, the following measurements were conducted every week from the 0th week, which began on the day when streptozotocin (STZ) was administered, to the 4th week (that is, a total of five times). As algesia tests, the following von Frey test and hot plate test were conducted, and hind plantar blood flow, body weight (BW), and blood glucose level (BS) were measured using the above-mentioned automatic blood glucose measure device. Note, for example, the 0th week represents the 0th day. That is, the measurements were conducted on the 0th, 7th, 14th, 21st, and 28th days.

[2] = system: streptozotocin-induced diabetic mice; test: Blood glucose level (BS) in streptozotocin-induced diabetic mice
Procedure: as §1, §2, §3

[3] = system: streptozotocin-induced diabetic mice; test: Hind plantar blood flow (laser perfusion imager)
Procedure: as §1, §2
The hind plantar blood flows (perfusion unit: PU) of the above-mentioned STZ group, SMTP-44D groups, edaravone group, pregabalin group, and control group mice were measured under isoflurane anesthesia using a full-field laser perfusion imager.

[4] = system: streptozotocin-induced diabetic mice; test: Sciatic nerve blood flow; settings: 4th week
Procedure: as §1, §2
(§4) Sciatic nerves of the above-mentioned STZ group, SMTP-44D groups, edaravone group, pregabalin group, and control group mice on the 4th week were exposed under isoflurane anesthesia, and then, using the full-field laser perfusion imager, their sciatic nerve blood flows (perfusion unit: PU) were measured. After the sciatic nerve blood flows were measured, a voltage was output from a PowerLab through the […] to impart an electrical stimulus to the sciatic nerves using needle electrodes. The electrical stimulus went through the Analog Stimulus Isolator via recording electrodes attached to the gastrocnemius and was input into the PowerLab, and thus neuromuscular function response curves were measured. The sciatic nerves were stimulated between two points at 8-mm intervals. The sciatic nerve conduction velocity (m/s) was calculated by dividing the […]. The sciatic nerve blood flow and sciatic nerve conduction velocity were measured using a Hot-1 small-sized heating controller and small-sized body temperature retention device (model number: […]-1), maintaining the rectal temperature at 37° C. The measurement results are described in Table 11.

[5] = system: streptozotocin-induced diabetic mice; test: Sciatic nerve conduction velocity; settings: 4th week
Procedure: as §1, §2, §4

[6] = system: streptozotocin-induced diabetic mice; test: Thickness and G-ratio of myelin in the sciatic nerve; settings: 4th week
Procedure: as §1, §2
The above-mentioned STZ group, SMTP-44D (30 mg/kg) group, edaravone group, pregabalin group, and control group mice in the 4th week were dissected to remove the sciatic nerves. The sciatic nerves were fixed using neutral buffered formalin and embedded using an Epon resin, and then semi-thin segments were formed and dyed using toluidine blue. The cross sections of the sciatic nerves in the respective specimens were examined using a microscope equipped with a digital camera at 400× magnification. The thickness of myelin ((diameter of axon including myelin diameter of axon)/2) and G-ratio (diameter of axon/diameter of axon including myelin) were measured.

TNF-α = test: Inflammatory cytokine TNF-α in sciatic nerve (ELISA); settings: 4th week
Procedure: as §1, §2
(§5) The sciatic nerves of the above-mentioned STZ group, SMTP-44D group (30 mg/kg), edaravone group, pregabalin group, and control group mice on the 4th week were homogenized using the RIPA buffer containing a protease inhibitor cocktail. Moreover, centrifugation was conducted at 4° C. for 15 minutes at 10,000 g, and the supernatant was collected and used for measuring TNF-α concentration (pg/mL), IL-1β concentration (pg/mL), IL-6 concentration (pg/mL), and total protein concentration (μg/mL), respectively. An ELISA assay kit was used for the TNF-α, IL-1β, and IL-6 concentrations. The total protein concentration was measured by using a Pierce (trademark) BCA Protein Assay Kit. The inflammatory cytokine level (pg/mg protein) in the total protein was calculated from the TNF-α concentration (pg/mL), IL-1β concentration (pg/mL), and IL-6 concentration (pg/mL), and total protein concentration (μg/mL).

IL-1β = test: Inflammatory cytokine IL-1β in sciatic nerve (ELISA); settings: 4th week
Procedure: as §1, §2, §5

[7] = 10 mg/kg i.p. once a day, 0th week (before dosing)
[8] = 10 mg/kg i.p. once a day, 0th week (before dosing), listed as pregabalin
[9] = 10 mg/kg i.p. once a day, 1st week (before dosing)
[10] = 10 mg/kg i.p. once a day, 1st week (before dosing), listed as pregabalin
[11] = 10 mg/kg i.p. once a day, 2nd week
[12] = 10 mg/kg i.p. once a day, 2nd week, listed as pregabalin
[13] = 10 mg/kg i.p. once a day, 3rd week
[14] = 10 mg/kg i.p. once a day, 3rd week, listed as pregabalin
[15] = 10 mg/kg i.p. once a day, 4th week
[16] = 10 mg/kg i.p. once a day, 4th week, listed as pregabalin
[17] = 10 mg/kg i.p. once a day, listed as pregabalin
[18] = 10 mg/kg i.p. once a day, listed as Preaabalin
[19] = 30 mg/kg i.p. once a day, 0th week (before dosing)
[20] = 30 mg/kg i.p. once a day, 1st week (before dosing)
[21] = 30 mg/kg i.p. once a day, 3rd week
[22] = 30 mg/kg i.p. once a day, 4th week
[23] = 30 mg/kg i.p. once a day, 2nd week

## CC(C)C[C@H](CN)CC(=O)O [Pregabalin, pregabalin]
[1]; 10 mg/kg i.p. once a day
  Body weight decrease between the 0th week and 4th week: 1.4 g
[1]; [7]
  BW (body weight): 21.8 ± 0.3 g
[1]; [8]
  BW (body weight): 21.8 ± 0.3 g
[1]; [9]
  BW (body weight): 21.4 ± 0.3 g
[1]; [10]
  BW (body weight): 21.4 ± 0.3 g
[1]; [11]
  BW (body weight): 21.3 ± 0.4 g
[1]; [12]
  BW (body weight): 21.3 ± 0.4 g
[1]; [13]
  BW (body weight): 21.0 ± 0.2 g
[1]; [14]
  BW (body weight): 21.0 ± 0.2 g
[1]; [15]
  BW (body weight): 20.4 ± 0.2 g
[1]; [16]
  BW (body weight): 20.4 ± 0.2 g
[2]; [7]
  BS (blood glucose level): 192.2 ± 5.3 mg/dL
[2]; [8]
  BS (blood glucose level): 192.2 ± 5.3 mg/dL
[2]; [9]
  BS (blood glucose level): 562.7 ± 25.6 mg/dL
[2]; [10]
  BS (blood glucose level): 562.7 ± 25.6 mg/dL
[2]; [11]
  BS (blood glucose level): 639.1 ± 44.7 mg/dL
[2]; [12]
  BS (blood glucose level): 639.1 ± 44.7 mg/dL
[2]; [14]
  BS (blood glucose level): 657.2 ± 38.7 mg/dL
[2]; [15]
  BS (blood glucose level): 582.3 ± 38.2 mg/dL
[2]; [16]
  BS (blood glucose level): 582.3 ± 38.2 mg/dL
[3]; [7]
  Hind plantar blood flow: 214.2 ± 7.6 PU
[3]; [8]
  Hind plantar blood flow: 214.2±7.6 PU
[3]; [9]
  Hind plantar blood flow: 159.8 ± 6.3 PU
[3]; [10]
  Hind plantar blood flow: 159.8±6.3 PU
[3]; [11]
  Hind plantar blood flow: 144.7 ± 8.3 PU
[3]; [12]
  Hind plantar blood flow: 144.7±8.3 PU
[3]; [13]
  Hind plantar blood flow: 152.7 ± 9.5 PU
[3]; [14]
  Hind plantar blood flow: 152.7±9.5 PU
[3]; [15]
  Hind plantar blood flow: 151.2 ± 8.0 PU
[3]; [16]
  Hind plantar blood flow: 151.2±8.0 PU
[4]; 10 mg/kg i.p. once a day
  Sciatic nerve blood flow: 1114.1 ± 27.5 PU
[4]; [17]
  Sciatic nerve blood flow: 1114.1±27.5 PU
[5]; 10 mg/kg i.p. once a day
  Sciatic nerve conduction velocity: 55.9 ± 1.4 m/s
[5]; [17]
  Sciatic nerve conduction velocity: 55.9±1.4 m/s
[6]; [18]
  G-ratio: 0.665 ± 0.006
  Thickness of myelin: 1.29 ± 0.03 μm
[6]; [17]
  G-ratio: 0.665±0.006
  Thickness of myelin: 1.29±0.03 μm
TNF-α; 10 mg/kg i.p. once a day
  TNF-α: 14.53 ± 1.41 pg/mg protein
TNF-α; [17]
  TNF-α: 14.53±1.41 pg/mg protein
IL-1β; 10 mg/kg i.p. once a day
  IL-1β: 58.04 ± 4.47 pg/mg protein
IL-1β; [17]
  IL-1β: 58.04±4.47 pg/mg protein

## CC(C)=CCCC(C)=CCCC1(C)Oc2c(c(O)cc3c2CN(C(C(=O)O)c2ccc(O)cc2)C3=O)CC1O (stereo not shown) [SMTP-44D]
[1]; 30 mg/kg i.p. once a day
  Body weight decrease between the 0th week and 4th week: 1.5 g
[1]; [19]
  BW (body weight): 23.0 ± 0.4 g
[1]; [20]
  BW (body weight): 21.7 ± 0.5 g
[1]; [21]
  BW (body weight): 21.3 ± 0.6 g
[1]; [22]
  BW (body weight): 21.5 ± 0.5 g
[2]; [19]
  BS (blood glucose level): 203.5 ± 5.5 mg/dL
[2]; [20]
  BS (blood glucose level): 535.5 ± 28.7 mg/dL
[2]; [23]
  BS (blood glucose level): 597.3 ± 44.8 mg/dL
[2]; [21]
  BS (blood glucose level): 638.7 ± 34.2 mg/dL
[2]; [22]
  BS (blood glucose level): 580.3 ± 42.9 mg/dL
[3]; 0.3 mg/kg i.p. once a day, 0th week (before dosing)
  Hind plantar blood flow: 199.8±9.8 PU
[3]; 0.3 mg/kg i.p. once a day, 1st week (before dosing)
  Hind plantar blood flow: 150.7±9.4 PU
[3]; 0.3 mg/kg i.p. once a day, 2nd week
  Hind plantar blood flow: 152.9±8.7 PU
[3]; 0.3 mg/kg i.p. once a day, 3rd week
  Hind plantar blood flow: 141.0±8.7 PU
[3]; 0.3 mg/kg i.p. once a day, 4th week
  Hind plantar blood flow: 132.3±6.6 PU
[3]; 3 mg/kg i.p. once a day, 0th week (before dosing)
  Hind plantar blood flow: 210.7±14.1 PU
[3]; 3 mg/kg i.p. once a day, 1st week (before dosing)
  Hind plantar blood flow: 154.8±12.8 PU
[3]; 3 mg/kg i.p. once a day, 2nd week
  Hind plantar blood flow: 169.3±7.9 PU
[3]; 3 mg/kg i.p. once a day, 3rd week
  Hind plantar blood flow: 161.3±11.8 PU
[3]; 3 mg/kg i.p. once a day, 4th week
  Hind plantar blood flow: 162.1±9.8 PU
[3]; [19]
  Hind plantar blood flow: 201.4±6.8 PU
[3]; [20]
  Hind plantar blood flow: 142.7±7.1 PU
[3]; [23]
  Hind plantar blood flow: 185.0±8.4 PU
[3]; [21]
  Hind plantar blood flow: 234.7±11.2 PU
[3]; [22]
  Hind plantar blood flow: 214.9±12.2 PU
[4]; 0.3 mg/kg i.p. once a day
  Sciatic nerve blood flow: 1116.9±30.4 PU
[4]; 3 mg/kg i.p. once a day
  Sciatic nerve blood flow: 1187.1±31.4 PU
[4]; 30 mg/kg i.p. once a day
  Sciatic nerve blood flow: 1461.0±55.0 PU
[5]; 0.3 mg/kg i.p. once a day
  Sciatic nerve conduction velocity: 54.9±1.2 m/s
[5]; 3 mg/kg i.p. once a day
  Sciatic nerve conduction velocity: 56.9±2.8 m/s and 56.9 ± 28 m/s
[5]; 30 mg/kg i.p. once a day
  Sciatic nerve conduction velocity: 63.8±2.0 m/s
[6]; 30 mg/kg i.p. once a day
  Thickness of myelin: 1.58±0.02 μm
TNF-α; 30 mg/kg i.p. once a day
  TNF-α: 15.22±2.51 pg/mg protein
IL-1β; 30 mg/kg i.p. once a day
  IL-1β: 24.90±4.05 pg/mg protein
